Consider 17 compounds from US11186566B2, “Modulator of cystic fibrosis transmembrane conductance regulator, pharmaceutical compositions, methods of treatment, and process for making the modulator” (Vertex Pharmaceuticals Incorporated, priority 2016, dated 2021).

Structures are written as SMILES. Like-named read-outs stand apart in the source and are kept apart here.

The target in one data set is F508del-CFTR (Homo sapiens (Human), UniProt P13569, DEL508-508). Nature of the data set: Membrane potential optical (fluorescent voltage sensing dye, FLIPR III) HTS assay for F508del-CFTR modulators. The class given is cell-based. From the text: Membrane Potential Optical Methods for Assaying Properties of F508del-CFTR Modulators
Chain of F508del-CFTR (P13569 other isoform, or with tags, fused parts or gaps del F508-F508): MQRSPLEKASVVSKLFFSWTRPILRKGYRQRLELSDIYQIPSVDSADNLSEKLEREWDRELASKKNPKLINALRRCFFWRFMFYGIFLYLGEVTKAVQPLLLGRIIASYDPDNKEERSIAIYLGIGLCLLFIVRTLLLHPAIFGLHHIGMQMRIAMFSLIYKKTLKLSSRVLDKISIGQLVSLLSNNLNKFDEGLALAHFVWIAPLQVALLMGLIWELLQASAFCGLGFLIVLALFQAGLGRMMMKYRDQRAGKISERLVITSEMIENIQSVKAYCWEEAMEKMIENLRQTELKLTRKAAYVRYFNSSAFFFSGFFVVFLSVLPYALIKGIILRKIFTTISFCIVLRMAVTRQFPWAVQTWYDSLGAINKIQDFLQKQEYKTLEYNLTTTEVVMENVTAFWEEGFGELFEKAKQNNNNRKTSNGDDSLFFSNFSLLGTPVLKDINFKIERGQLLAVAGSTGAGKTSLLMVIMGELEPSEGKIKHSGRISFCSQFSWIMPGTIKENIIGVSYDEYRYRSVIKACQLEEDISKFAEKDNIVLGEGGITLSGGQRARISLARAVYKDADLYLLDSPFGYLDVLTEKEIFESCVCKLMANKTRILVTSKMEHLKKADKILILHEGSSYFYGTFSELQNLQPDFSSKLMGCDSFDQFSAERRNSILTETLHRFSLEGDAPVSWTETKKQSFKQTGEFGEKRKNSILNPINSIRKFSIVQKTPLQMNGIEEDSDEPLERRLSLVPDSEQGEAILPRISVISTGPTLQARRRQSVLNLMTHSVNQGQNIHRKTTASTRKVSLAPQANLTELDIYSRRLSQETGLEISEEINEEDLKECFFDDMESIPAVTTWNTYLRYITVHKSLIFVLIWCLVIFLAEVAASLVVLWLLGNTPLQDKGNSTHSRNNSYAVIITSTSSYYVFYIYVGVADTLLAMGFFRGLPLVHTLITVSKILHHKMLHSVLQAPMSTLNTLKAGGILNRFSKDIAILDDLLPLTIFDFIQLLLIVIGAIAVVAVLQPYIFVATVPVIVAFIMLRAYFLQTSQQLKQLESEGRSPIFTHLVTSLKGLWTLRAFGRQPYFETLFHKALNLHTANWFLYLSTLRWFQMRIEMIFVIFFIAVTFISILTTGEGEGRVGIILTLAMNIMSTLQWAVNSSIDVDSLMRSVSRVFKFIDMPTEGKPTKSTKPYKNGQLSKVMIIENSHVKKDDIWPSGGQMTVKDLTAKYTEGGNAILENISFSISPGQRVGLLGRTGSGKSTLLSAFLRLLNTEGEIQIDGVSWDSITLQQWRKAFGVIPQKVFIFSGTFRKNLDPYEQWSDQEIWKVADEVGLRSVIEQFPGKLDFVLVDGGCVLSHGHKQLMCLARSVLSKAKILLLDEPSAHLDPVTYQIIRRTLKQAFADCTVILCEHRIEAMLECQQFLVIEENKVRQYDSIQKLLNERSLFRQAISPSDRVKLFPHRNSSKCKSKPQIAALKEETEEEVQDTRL
The assay utilizes fluorescent voltage sensing dyes to measure changes in membrane potential using a fluorescent plate reader (e.g., FLIPR III, Molecular Devices, Inc.) as a readout for increase in functional F508del in NIH 3T3 cells.
5A-A1. Identification of F508Del-CFTR Modulators
To identify modulators of F508del, a fluorescence based HTS assay format was developed. This HTS assay utilizes fluorescent voltage sensing dyes to measure changes in membrane potential on the FLIPR III as a measurement for increase in gating (conductance) of F508del NIH 3T3 cells.
(in mM) NaCl 160, KCl 4.5, CaCl2 2, MgCl2 1, HEPES 10, pH 7.4 with NaOH, Glucose 10.
Chloride salts in Bath Solution #1 (above) are substituted with gluconate salts.
NIH3T3 mouse fibroblasts stably expressing F508del are used for optical measurements of membrane potential. The cells are maintained at 37° C. in 5% CO2 and 90% humidity in Dulbecco's modified Eagle's medium supplemented with 2 mM glutamine, 10% fetal bovine serum, 1×NEAA, β-ME, 1×pen/strep, and 25 mM HEPES in 175 cm^2 culture flasks. For all optical assays, the cells were seeded at 12,000 cells/well in 384-well matrigel-coated plates and cultured for 18-24 hrs at 37° C. for the potentiator assay. For the correction assays, the cells are cultured at 37° C. with and without compounds for 18-24 hours.

The target of a further data set is human PXR (Homo sapiens (Human), UniProt O75469). As to the kind of experiment: PXR assay (PXR mediated CYP3A4 induction, DPX-2 cell line). In kind it is cell-based. As to conditions: DPX-2 cells, 48 hours, 0.1 to 60 μM. The procedure: 5D. Experimental Protocol for PXR Assay
Chain of human PXR (O75469 whole entry): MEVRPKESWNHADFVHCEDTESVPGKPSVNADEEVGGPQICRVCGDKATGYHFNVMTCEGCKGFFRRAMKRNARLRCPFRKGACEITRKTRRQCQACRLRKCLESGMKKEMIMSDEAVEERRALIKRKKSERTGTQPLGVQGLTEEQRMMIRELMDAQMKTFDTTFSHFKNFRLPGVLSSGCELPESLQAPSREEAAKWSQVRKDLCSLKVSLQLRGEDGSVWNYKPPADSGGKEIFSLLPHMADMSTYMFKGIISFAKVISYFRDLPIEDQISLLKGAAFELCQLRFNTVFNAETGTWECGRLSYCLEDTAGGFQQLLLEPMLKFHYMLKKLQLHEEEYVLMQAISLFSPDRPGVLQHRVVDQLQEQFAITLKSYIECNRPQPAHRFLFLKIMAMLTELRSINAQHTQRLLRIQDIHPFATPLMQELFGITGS
The propensity for PXR mediated CYP3A4 induction is assessed using the DPX-2 cell line in vitro. This cell line, which has been licensed from Puracyp Inc. was derived from HepG2 cells and has been stably transfected with genes encoding human PXR as well as a modified luciferase reporter linked to the CYP3A4 promoter region and related distal and proximal enhancers.
The assay is run in 384 well format and each test article is administered in 11 doses ranging from 0.1 to 60 μM. On day 1, DPX-2 cells which have previously been expanded in-house and cryopreserved are thawed and seeded in tissue culture plates. The following day, media is changed and cells are cultured in media containing test article, vehicle control or the positive control compound, the clinically validated CYP3A4 inducer rifampicin. Cells are cultured in the presence of test article for 48 hours and then cell viability is assessed using fluorescence based assay (Cell Titer-Fluor, Promega) with an EnVision Plate Reader (PerkinElmer). Subsequently, CYP3A4 transactivation, which is proportional to luciferase activity, is measured by reading luminescense using the Promega One-Glo reagent system using the same plate reader.
Data processing within the Genedata software package allows reporting of max fold induction compared to vehicle control, an EC50 value for CYP3A4 inducers and an 11 point-dose response curve.

Another data set can be described thus: Rat IV and PO PK studies. In kind it is in vivo, male Sprague-Dawley rats. As to conditions: male, Sprague-Dawley, plasma; for bioavailability / AUC: 3 mg/kg, oral; for bioavailability: read-out: Rat po % F; for clearance: intravenous, 3.0 mg/kg, read-out: Rat iv CL. As to the method:
5C. Experimental Protocol for Rat IV and PO PK Studies
[…] […] Analyses of plasma and dose preparations were performed using LC/MS/MS.
Plasma concentration-time profiles of the tested compound in Sprague-Dawley rats at scheduled (nominal) sampling times were analyzed by noncompartmental pharmacokinetic methods using PK function within Watson LIMS software, Version 7.4.2 (Thermo Scientific Inc, Waltham, Mass.). AUC values were calculated using the linear trapezoidal rule.

The mark [1] stands for this setting: F508del NIH 3T3 cells, assay 5A-A1, read-out: CFTRdF508 EC50.
[2] abbreviates: Table 9, read-out: CFTR dF508 EC50.
Setting [3] is: Table 7, Compound 1 and metabolites, read-out: CFTRdF508 EC50.

What is called EC50 is the midpoint of the concentration-response curve. With `C[C@@H]1CN(c2nc(-n3ccc(COCC4(C(F)(F)F)CC4)n3)ccc2C(=O)NS(=O)(=O)c2ccccc2)C(C)(C)C1` [Comp. 37, N-(Benzenesulfonyl)-6-[3-[[1-(trifluoromethyl)cyclopropyl]methoxymethyl]pyrazol-1-yl]-2-[(4S)-2,2,4-trimethylpyrrolidin-1-yl]pyridine-3-carboxamide], the EC50 was < 100 nM at F508del-CFTR (setting [1]) and 70 nM at F508del-CFTR (setting [2]). Further, on human PXR, the “PXR Max Induction (% of rifampicin)” value is listed as 8 % of rifampicin.
For `C[C@@H]1CN(c2nc(-n3ccc(OCC(C)(C)C)n3)ccc2C(=O)NS(=O)(=O)c2ccc[nH]c2=O)C(C)(C)C1` [Comp. C, reference compound], on human PXR, the “PXR Max Induction (% of rifampicin)” value is on record as 3 % of rifampicin.
Broadly, the AUC is the area under the concentration-time curve, a measure of exposure. `C[C@@H]1CN(c2nc(-n3ccc(OCCC(C4CC4)C4CC4)n3)ccc2C(=O)NS(=O)(=O)c2ccccc2)C(C)(C)C1` [Comp. 42, N-(Benzenesulfonyl)-6-[3-(3,3-dicyclopropylpropoxy)pyrazol-1-yl]-2-[(4S)-2,2,4-trimethylpyrrolidin-1-yl]pyridine-3-carboxamide]: the half-maximal effective concentration (EC50) at F508del-CFTR (setting [1]) is < 100 nM. For the same compound, at F508del-CFTR (setting [2]), the EC50 was 50 nM. Also, in the data set “Rat IV and PO PK studies”, the bioavailability stood at 51%, the clearance is 5.4 mL/min/kg and the AUC turned out to be 4400 ng·h/mL.
Turning to `C[C@@H]1CN(c2nc(-n3ccc(OCC4CCC4)n3)ccc2C(=O)NS(=O)(=O)c2cccnc2N)C(C)(C)C1` [Comp. E, reference compound], the “PXR Max Induction (% of rifampicin)” value at human PXR was 10 % of rifampicin.
In the case of `C[C@@H]1CN(c2nc(-n3ccc(OCC(C4CC4)C4CC4)n3)ccc2C(=O)NS(=O)(=O)c2ccccc2)C(C)(C)C1` [Comp. 41, N-(Benzenesulfonyl)-6-[3-(2,2-dicyclopropylethoxy)pyrazol-1-yl]-2-[(4S)-2,2,4-trimethylpyrrolidin-1-yl]pyridine-3-carboxamide], in “Rat IV and PO PK studies”, the bioavailability amounted to 41%, the clearance was found to be 1.9 mL/min/kg and the AUC turned out to be 6400 ng·h/mL.
Regarding `CC1(C)CC(CO)CN1c1nc(-n2ccc(OCCC3(C(F)(F)F)CC3)n2)ccc1C(=O)NS(=O)(=O)c1ccccc1` (centres unmarked) [Compound 9, N-(Benzenesulfonyl)-2-[4-(hydroxymethyl)-2,2-dimethyl-pyrrolidin-1-yl]-6-[3-[2-[1-(trifluoromethyl)cyclopropyl]ethoxy]pyrazol-1-yl]pyridine-3-carboxamide], the EC50 on F508del-CFTR (setting [1]) was 100 to 1000 nM.
In the case of `C[C@@H]1CN(c2nc(-n3ccc(OCCC4(C(F)(F)F)CC4)n3)ccc2C(=O)NS(=O)(=O)c2ccccc2O)C(C)(C)C1` [Compound 34, N-(2-hydroxyphenyl)sulfonyl-6-[3-[2-[1-(trifluoromethyl)cyclopropyl]ethoxy]pyrazol-1-yl]-2-[(4S)-2,2,4-trimethylpyrrolidin-1-yl]pyridine-3-carboxamide], the figures for the EC50 at F508del-CFTR (setting [1]) and at F508del-CFTR (setting [3]) were < 100 nM and 90 nM, respectively.
Take `C[C@@H]1CN(c2nc(-n3ccc(O[C@@H]4C[C@@H]4C(F)(F)F)n3)ccc2C(=O)NS(=O)(=O)c2ccccc2)C(C)(C)C1` (racemic) [Compound 18, N-(Benzenesulfonyl)-6-[3-[(cis)-2-(trifluoromethyl)cyclopropoxy]pyrazol-1-yl]-2-[(4S)-2,2,4-trimethylpyrrolidin-1-yl]pyridine-3-carboxamide]: the half-maximal effective concentration (EC50) on F508del-CFTR (setting [1]) was in the range of 100 to 1000 nM.
Same read-out and setting: in the case of `C[C@@H]1CN(c2nc(-n3ccc(OCC4(C(F)(F)F)CC4)n3)ccc2C(=O)NS(=N)(=O)c2ccccc2)C(C)(C)C1` (single isomer, unassigned) [Compound 46] it was < 100 nM.
In the case of `C[C@@H]1CN(c2nc(-n3ccc(OCC4(C(F)(F)F)CCC4)n3)ccc2C(=O)NS(=O)(=O)c2ccccc2)C(C)(C)C1` [Compound 10, N-(Benzenesulfonyl)-6-[3-[[1-(trifluoromethyl)cyclobutyl]methoxy]pyrazol-1-yl]-2-[(4S)-2,2,4-trimethylpyrrolidin-1-yl]pyridine-3-carboxamide], the EC50 at F508del-CFTR (setting [1]) was < 100 nM. In addition, the EC50 on F508del-CFTR (setting [2]) worked out at 40 nM. For the same compound, in “Rat IV and PO PK studies”, the bioavailability is 41%, the clearance is 11.2 mL/min/kg and the AUC was found to be 2200 ng·h/mL.
For the compound `Cc1cc(C#N)ccc1S(=O)(=O)NC(=O)c1ccc(-n2ccc(OCC3(C(F)(F)F)CC3)n2)nc1N1C[C@@H](C)CC1(C)C` [Compound 11, N-(4-Cyano-2-methyl-phenyl)sulfonyl-6-[3-[[1-(trifluoromethyl)cyclopropyl]methoxy]pyrazol-1-yl]-2-[(4S)-2,2,4-trimethylpyrrolidin-1-yl]pyridine-3-carboxamide], at F508del-CFTR (setting [1]), the concentration for a half-maximal effect (EC50) fell in the range of 100 to 1000 nM.
For the compound `C[C@@H]1CN(c2nc(-n3ccc(OCCC4(C(F)(F)F)CC4)n3)ccc2C(=O)NS(=O)(=O)c2cccc(F)c2)C(C)(C)C1` [Compound 5, N-(3-Fluorophenyl)sulfonyl-6-[3-[2-[1-(trifluoromethyl)cyclopropyl]ethoxy]pyrazol-1-yl]-2-[(4S)-2,2,4-trimethylpyrrolidin-1-yl]pyridine-3-carboxamide], the EC50 at F508del-CFTR (setting [1]) was < 100 nM. Besides, the EC50 on F508del-CFTR (setting [2]) turned out to be 50 nM. In “Rat IV and PO PK studies”, the bioavailability stood at 50%, the clearance was 9.6 mL/min/kg and the AUC was 2700 ng·h/mL.
Take `COc1cc(C)ccc1S(=O)(=O)NC(=O)c1ccc(-n2ccc(OCC3(C(F)(F)F)CC3)n2)nc1N1C[C@@H](C)CC1(C)C` [Compound 12, N-(2-Methoxy-4-methyl-phenyl)sulfonyl-6-[3-[[1-(trifluoromethyl)cyclopropyl]methoxy]pyrazol-1-yl]-2-[(4S)-2,2,4-trimethylpyrrolidin-1-yl]pyridine-3-carboxamide]: the EC50 on F508del-CFTR (setting [1]) is < 100 nM.
On to `C[C@H]1CC(C)(C)N2c3nc(-n4ccc(OCCC5(C(F)(F)F)CC5)n4)ccc3C(=O)OC12` (stereo partly drawn) [Compound 62, (5S)-3,3,5-trimethyl-12-(3-(2-[1-(trifluoromethyl)cyclopropyl]ethoxy)-1H-pyrazol-1-yl)-7-oxa-2,13-diazatricyclo[7.4.0.02,6]trideca-1(13),9,11-trien-8-one], for which the 50% effective concentration (EC50) at F508del-CFTR (setting [1]) is > 1000 nM; at F508del-CFTR (setting [3]), > 30000 nM.
Turning to `C[C@@H]1CN(c2nc(-n3ccc(OCC4(C(F)(F)F)CCC4)n3)ccc2C(=O)NS(=O)(=O)c2cccc(F)c2)C(C)(C)C1` [Compound 59, N-(3-Fluorophenyl)sulfonyl-6-[3-[[1-(trifluoromethyl)cyclobutyl]methoxy]pyrazol-1-yl]-2-[(4S)-2,2,4-trimethylpyrrolidin-1-yl]pyridine-3-carboxamide], the EC50 at F508del-CFTR (setting [1]) is < 100 nM.
On to `C[C@@H]1CN(c2nc(-n3ccc(OCC4(C(F)(F)F)CC4)n3)ccc2C(=O)NS(=O)(=O)c2ccc(F)cc2)C(C)(C)C1` [Compound 52, N-(4-fluorophenyl)sulfonyl-6-[3-[[1-(trifluoromethyl)cyclopropyl]methoxy]pyrazol-1-yl]-2-[(4S)-2,2,4-trimethylpyrrolidin-1-yl]pyridine-3-carboxamide], for which, at F508del-CFTR (setting [1]), the concentration giving a half-maximal response (EC50) is < 100 nM.
On the same count and under the same terms, in the case of `[2H]C([2H])([2H])[C@@H]1CN(c2nc(-n3ccc(OCCC4(C(F)(F)F)CC4)n3)ccc2C(=O)NS(=O)(=O)c2ccccc2)C(C)(C)C1([2H])[2H]` [Compound 17, N-(Benzenesulfonyl)-2-[(4S)-3,3-dideuterio-2,2-dimethyl-4-(trideuteriomethyl)pyrrolidin-1-yl]-6-[3-[2-[1-(trifluoromethyl)cyclopropyl]ethoxy]pyrazol-1-yl]pyridine-3-carboxamide] it was < 100 nM.
